Laboratory results: patent publication US12466831B2, “Substituted amino triazolopyrimidine and amino triazolopyrazine adenosine receptor antagonists, pharmaceutical compositions and their use” (Merck Sharp & Dohme LLC, priority 2018, dated 2025)

Tests used:
[1] = target: T1, human A2a adenosine receptor (Homo sapiens, UniProt P29274); test: A2a binding affinity using radioligand binding, Method (A); conditions: Method (A): [3H]SCH58261 filtration binding, membranes expressing human A2a
T1 construct: purchased Perkin Elmer RBHA2aM400UA; host or cells: HEK293 or CHO cells (recombinant expression)
Description: (§1) Method (A) describes the procedure used to measure A2a binding affinity using radioligand binding. Method (B) describes the procedure used to measure A2a binding affinity using SPA technology. The method used to measure A2b binding affinity is also described below. The method used to determine the A2a IC50 value reported for each compound in the table is indicated next to the reported value. The A2b IC50 value measured using the A2b binding affinity assay is shown in the table next to the compound under the corresponding A2a value.
The A2a receptor affinity binding assay measured the amount of binding of a tritiated ligand with high affinity for the A2a adenosine receptor to membranes made from HEK293 or CHO cells recombinantly expressing the human A2a adenosine receptor, in the presence of varying concentrations of a compound of the invention. The data were generated using either filtration binding or a homogenous scintillation proximity assay (SPA).
Method (A): Measurement of A2a Binding Affinity Using Radioligand Binding
148 μL (5 μg/mL) membranes (Perkin Elmer, Cat. No. RBHA2aM400UA) and 2 μL compounds of the invention to be tested (test compound) were transferred to individual wells of a 96-well polypropylene assay plate and incubated for 15 to 30 minutes at room temperature. [^3H] SCH58261 ((7-(2-phenylethyl)-5-amino-2-(2-furyl)-pyrazolo-[4,3-e]-1,2,4-triazolo[1,5-c]pyrimidine)) was diluted in assay buffer (50 mM Tris pH 7.4, 10 mM MgCl2, 0.005% Tween20) to a concentration of 4 nM and 50 μL transferred to each well of the assay plate. To define total and non-specific binding, wells containing 1% DMSO and 1 μM ZM241385 (Tocris Bioscience, Cat. No. 1036) respectively, were also included. The assay plate was incubated at room temperature for 60 minutes with agitation. Using a FilterMate Harvester® (Perkin Elmer), the contents of the assay plate were filtered through a UniFilter-96® PEI coated plate (Perkin Elmer Cat. No. 6005274 or 6005277). Filtering was achieved by aspirating the contents of the assay plate for 5 seconds, then washing and aspirating the contents three times with ice-cooled wash buffer (50 mM Tris-HCl pH 7.4, 150 mM NaCl) and allowing the vacuum manifold to dry the plate for 30 seconds. The filter plate was incubated for at least 1 hour at 55° C. and allowed to dry. The bottom of the filter plate was sealed with backing tape. 40 μL Ultima Gold™ (Perkin Elmer, Cat. No. 6013329) was added to each well of the filter plate and the top of the plate was sealed with TopSeal-A PLUS® clear plate seal (Perkin Elmer, Cat. No. 6050185). The plate was incubated for at least 20 minutes, and then the amount of radioactivity remaining in each well was determined using a TopCount® (Perkin Elmer) scintillation counter. After normalization to total and non-specific binding, the percent effect at each compound concentration was calculated. The plot of percent effect versus the log of compound concentration was analyzed electronically using a 4-parameter logistic fit based on the Levenberg-Marquardt algorithm to generate IC50 values.

[2] = target: T2, human A2b adenosine receptor (Homo sapiens, UniProt P29275); test: A2b binding affinity, radioligand filtration binding assay; conditions: tritiated proprietary A2b antagonist, HEK293 membranes expressing human A2b
T2 construct: purchased Perkin Elmer ES-013-C; host or cells: HEK293 cells recombinantly expressing the receptor; membranes made from them
T2 sequence (P29275 1-332): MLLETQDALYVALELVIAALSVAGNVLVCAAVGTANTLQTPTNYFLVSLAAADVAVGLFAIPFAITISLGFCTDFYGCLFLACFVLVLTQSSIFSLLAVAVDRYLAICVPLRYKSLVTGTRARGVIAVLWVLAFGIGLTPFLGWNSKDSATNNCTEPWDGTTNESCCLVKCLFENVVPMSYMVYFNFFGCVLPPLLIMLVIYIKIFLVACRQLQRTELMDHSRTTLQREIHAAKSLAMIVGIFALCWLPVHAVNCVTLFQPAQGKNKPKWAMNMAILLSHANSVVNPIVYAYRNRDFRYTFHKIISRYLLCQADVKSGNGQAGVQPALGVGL
Description: as §1
Measurement of A2b Binding Affinity
The reported affinity of the compounds of the invention for the human A2b adenosine receptor was determined experimentally using a radioligand filtration binding assay. This assay measures the amount of binding of a tritiated proprietary A2b receptor antagonist, in the presence and absence of a compound of the invention, to membranes made from HEK293 cells recombinantly expressing the human A2b adenosine receptor (Perkin Elmer, Cat. No. ES-013-C).
148 μL (135 μg/mL) membranes and 2 μL test compounds were transferred to individual wells of a 96-well polypropylene assay plate and incubated for 15 to 30 minutes at room temperature with agitation. Tritiated radioligand was diluted to a concentration of 14 nM in assay buffer (phosphate buffered saline without Magnesium and Calcium, pH 7.4; GE Healthcare Life Sciences, Cat. No. SH30256.01) and then 50 μL of the solution were transferred to each well of the assay plate. To define total and non-specific binding, wells containing 1% DMSO and 20 μM N-ethylcarboxamidoadenosine (Tocris Bioscience, Cat. No. 1691) respectively, were also included. The wells of the assay plate were incubated at room temperature for 60 minutes with agitation, then filtered using a FilterMate Harvester® (Perkin Elmer) or similar equipment through a UniFilter-96® PEI coated plate (Perkin Elmer Cat. No. 6005274 or 6005277). Filtering was achieved by aspirating the contents of the assay plate for 5 seconds, then washing and aspirating the contents three times with ice-cooled wash buffer (assay buffer supplemented with 0.0025% Brij58) and allowing the vacuum manifold to dry the plate for 30 seconds. The filter plate was incubated for at least 1 hour at 55° C. and allowed to dry. The bottom of the filter plate was then sealed with backing tape. 40 μL Ultima Gold™ (Perkin Elmer, Cat. No. 6013329) was added to each well of the filter plate and the top of the plate was sealed with TopSeal-A PLUS® clear plate seal (Perkin Elmer, Cat. No. 6050185). The plates were then incubated for at least 20 minutes, and then the amount of radioactivity remaining in each well was determined using a TopCount® (Perkin Elmer) scintillation counter. After normalization to total and non-specific binding, the percent effect at each compound concentration was calculated. The plot of percent effect versus the log of compound concentration was analyzed electronically using a 4-parameter logistic fit based on the Levenberg-Marquardt algorithm to generate IC50 values.

T1 sequence (P29274 whole entry): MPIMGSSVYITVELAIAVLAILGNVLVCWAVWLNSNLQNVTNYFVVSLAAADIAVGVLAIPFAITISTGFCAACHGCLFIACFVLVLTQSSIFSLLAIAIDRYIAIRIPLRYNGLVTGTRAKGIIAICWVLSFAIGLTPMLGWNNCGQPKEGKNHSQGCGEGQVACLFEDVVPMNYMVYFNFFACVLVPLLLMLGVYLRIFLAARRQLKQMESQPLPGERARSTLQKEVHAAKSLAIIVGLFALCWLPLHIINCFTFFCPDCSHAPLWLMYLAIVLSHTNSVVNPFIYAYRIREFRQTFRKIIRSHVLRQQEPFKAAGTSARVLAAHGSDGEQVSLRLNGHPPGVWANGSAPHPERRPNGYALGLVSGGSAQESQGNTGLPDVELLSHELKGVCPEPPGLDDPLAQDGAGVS

Structure (SMILES) | IC50 [1] | IC50 [2]
Cc1c(-c2ncco2)nc(N)n2nc([C@@H]3CCCN(c4cnn(C(C)C(C)(C)O)c4)C3)nc12 (single isomer, unassigned) [Example 2.10, (R or S)-3-(4-((R)-3-(5-amino-8-methyl-7-(oxazol-2-yl)-[1,2,4]triazolo[1,5-c]pyrimidin-2-yl)piperidin-1-yl)-1H-pyrazol-1-yl)-2-methylbutan-2-ol] | 1.2 nM | 261 nM
Cc1c(-c2ncco2)nc(N)n2nc([C@@H]3CC[C@H](C)NC3)nc12 [Example 2.9, 8-methyl-2-((3R,6S)-6-methylpiperidin-3-yl)-7-(oxazol-2-yl)-[1,2,4]triazolo[1,5-c]pyrimidin-5-amine] | 129 nM | 2410 nM
CCn1cc(N2C[C@@H](c3nc4c(C)c(-c5cccc(F)c5)nc(N)n4n3)CC[C@H]2C)cn1 [Example 2.17, 2-((3S,6R)-1-(1-ethyl-1H-pyrazol-4-yl)-6-methylpiperidin-3-yl)-7-(3-fluorophenyl)-8-methyl-[1,2,4]triazolo[1,5-c]pyrimidin-5-amine] | 47.6 nM | 2150 nM
Cc1c(-c2ncco2)nc(N)c2nc(C3CCCC(C)(O)C3)nn12 (single isomer, unassigned) [Example 8.5, (1R,3S and 1S,3R) or (1R,3R and 1S,3S)-(8-amino-5-methyl-6-(oxazol-2-yl)-[1,2,4]triazolo[1,5-a]pyrazin-2-yl)-1-methylcyclohexan-1-ol] | 265 nM | 9140 nM
Cc1c(-c2ncco2)nc(N)n2nc([C@@H]3CCCNC3)nc12 [Example 2.3, (R)-8-methyl-7-(oxazol-2-yl)-2-(piperidin-3-yl)-[1,2,4]triazolo[1,5-c]pyrimidin-5-amine] | 20.5 nM | 1040 nM
Cc1c(-c2cccc(F)c2)nc(N)c2nc(C3CCC(C)(O)C3)nn12 (single isomer, unassigned) [Example 8.9, (1R,3S and 1S,3R) or (1R,3R and 1S,3S)-3-(8-amino-6-(3-fluorophenyl)-5-methyl-[1,2,4]triazolo[1,5-a]pyrazin-2-yl)-1-methylcyclopentan-1-ol] | 357 nM | 2090 nM
CCn1cc(N2C[C@@H](c3nc4c(C)c(-c5ncco5)nc(N)n4n3)CC[C@H]2C)cn1 [Example 2.15, 2-((3S,6R)-1-(1-ethyl-1H-pyrazol-4-yl)-6-methylpiperidin-3-yl)-8-methyl-7-(oxazol-2-yl)-[1,2,4]triazolo[1,5-c]pyrimidin-5-amine] | 20 nM | 2400 nM
Cc1c(-c2ncco2)nc(N)n2nc([C@@H]3CC[C@H](C)N(c4cnn(CC(C)(C)O)c4)C3)nc12 [Example 2.12, 1-(4-((2S,5R)-5-(5-amino-8-methyl-7-(oxazol-2-yl)-[1,2,4]triazolo[1,5-c]pyrimidin-2-yl)-2-methylpiperidin-1-yl)-1H-pyrazol-1-yl)-2-methylpropan-2-ol] | 1 nM | 19.8 nM
Cc1c(-c2ncco2)nc(N)n2nc([C@H]3CC[C@@H](C)N(c4cnn(CC(C)(C)O)c4)C3)nc12 [Example 2.13, 1-(4-((2R,5S)-5-(5-amino-8-methyl-7-(oxazol-2-yl)-[1,2,4]triazolo[1,5-c]pyrimidin-2-yl)-2-methylpiperidin-1-yl)-1H-pyrazol-1-yl)-2-methylpropan-2-ol] | 47.9 nM | 1310 nM
Cc1c(-c2ncco2)nc(N)c2nc(C3CCC(C)(O)C3)nn12 (single isomer, unassigned) [Example 8.7, (1R,3S and 1S,3R) or (1R,3R and 1S,3S)-3-(8-amino-5-methyl-6-(oxazol-2-yl)-[1,2,4]triazolo[1,5-a]pyrazin-2-yl)-1-methylcyclopentan-1-ol] | 143 nM | 2590 nM
Cc1c(-c2ncco2)nc(N)c2nc([C@H]3CCCN(c4cnn(C)c4)C3)nn12 (single isomer, unassigned) [Example 2.5-2] | 37.3 nM | 7390 nM
Cc1c(-c2ncco2)nc(N)n2nc([C@@H]3CCCN(c4cnn(C(C)C(C)(C)O)c4)C3)nc12 (single isomer, unassigned) [Example 2.11, (S or R)-3-(4-((R)-3-(5-amino-8-methyl-7-(oxazol-2-yl)-[1,2,4]triazolo[1,5-c]pyrimidin-2-yl)piperidin-1-yl)-1H-pyrazol-1-yl)-2-methylbutan-2-ol] | 3.2 nM | 81.6 nM
Cc1c(-c2cccc(F)c2)nc(N)c2nc(C3CCCC(C)(O)C3)nn12 (single isomer, unassigned) [Example 8.11-1, (1R,3S or 1S,3R or 1R,3R or 1S,3S)-1-3-(8-amino-6-(3-fluorophenyl)-5-methyl-[1,2,4]triazolo[1,5-a]pyrazin-2-yl)-1-methylcyclohexan-1-ol] | 132 nM | ≥ 10000 nM
Cc1c(-c2ncco2)nc(N)n2nc(C3CCCC(C)(O)C3)nc12 (single isomer, unassigned) [Example 8.2-2, (1-R or S,3-R or S)-3-(5-amino-8-methyl-7-(oxazol-2-yl)-[1,2,4]triazolo[1,5-c]pyrimidin-2-yl)-1-methylcyclohexan-1-ol] | 227 nM | 7310 nM
Cc1c(-c2ncco2)nc(N)n2nc(C3CCN(c4cnn(CC(C)(C)O)c4)C3)nc12 (single isomer, unassigned) [Example 3.15-2, (R or S)-1-(4-(3-(5-amino-8-methyl-7-(oxazol-2-yl)-[1,2,4]triazolo[1,5-c]pyrimidin-2-yl)pyrrolidin-1-yl)-1H-pyrazol-1-yl)-2-methylpropan-2-ol] | 435 nM | 9090 nM
Cc1cc(N2CCC[C@@H](c3nc4c(C)c(-c5ncco5)nc(N)n4n3)C2)cnc1OC(F)F [Example 3.13, (R)-2-(1-(6-(difluoromethoxy)-5-methylpyridin-3-yl)piperidin-3-yl)-8-methyl-7-(oxazol-2-yl)-[1,2,4]triazolo[1,5-c]pyrimidin-5-amine] | 1.6 nM | 149 nM
